# Measured values reported in publication PMC9228987, “Antiproliferative Activity of a New Quinazolin-4(3H)-One Derivative via Targeting Aurora Kinase A in Non-Small Cell Lung Cancer” (Pharmaceuticals, 2022).
# Experiments:
# A549 cells = assay: SRB cell proliferation assay; conditions: Homo sapiens, A549, 72 h, read-out: IC50 value, A549
# Description: (§3) The human non-small lung cancer cell lines A549, NCI-H1975, NCI-H1299, and NCI-H1993 were purchased from the American Type Culture Collection (Manassas, VA, USA). The human non-small cell lung cancer cell lines HCC827, PC9, HCC827-gef and PC9-gef were a kind gift from Dr. Jae Cheol Lee and Dr. Jin Kyung Rho (Asan Medical Center, Seoul, Korea). […] Cells were incubated at 37 °C in a humidified atmosphere with 5% CO2.
# (§4) Cell viability was measured using the SRB method as described previously [58]. Briefly, cells were seeded with different concentrations of compounds and incubated for 72 h. After 72 h incubation, cells were fixed with 10% TCA for 30 min at 4 °C and stained with 0.4% (w/v) SRB in 1% acetic acid for 2 h at room temperature.
# H1975 cells [1] = assay: SRB cell proliferation assay; conditions: Homo sapiens, NCI-H1975, 72 h, read-out: IC50 value, H1975
# Description: as §3, §4
# PC9 cells = assay: SRB cell proliferation assay; conditions: Homo sapiens, PC-9, 72 h, read-out: IC50 value, PC9
# Description: as §3, §4
# PC9-gef cells = assay: SRB cell proliferation assay; conditions: Homo sapiens, 72 h, read-out: IC50 value, PC9-gef
# Description: as §3, §4
# HCC827-gef cells = assay: SRB cell proliferation assay; conditions: Homo sapiens, 72 h, read-out: IC50 value, HCC827-gef
# Description: as §3, §4
# HCC827 cells = assay: SRB cell proliferation assay; conditions: Homo sapiens, HCC827, 72 h, read-out: IC50 value, HCC827
# Description: as §3, §4
# H1993 cells = assay: SRB cell proliferation assay; conditions: Homo sapiens, NCI-H1993, 72 h, read-out: IC50 value, H1993
# Description: as §3, §4
# H1299 cells = assay: SRB cell proliferation assay; conditions: Homo sapiens, NCI-H1299, 72 h, read-out: IC50 value, H1299
# Description: as §3, §4
# p-aurora kinase A (T288) = assay: Western blotting of phospho-aurora kinase A in H1975 cells; assay type: cell-based, human; conditions: 24 h
# Description: (§1) The cells were collected and lysed in sample loading buffer (Bio-Rad, Hercules, CA, USA). Total protein concentrations were quantified using a BCA Protein Assay Kit (Thermo Fisher Scientific, Waltham, MA, USA). Quantified proteins were loaded onto SDS-polyacrylamide gels and separated by molecular weight via electrophoresis (PAGE). Then, proteins were transferred to polyvinylidene fluoride membranes (Millipore, Bedford, MA, USA); 5% BSA in Tris-buffered saline containing 0.1% Tween-20 (TBST) was used for blocking. The membranes were blocked for 30 min at room temperature with mild shaking, then incubated with antibodies diluted in 2.5% BSA in TBST overnight at 4 °C with mild shaking. Following secondary antibody incubation and washing with TBST, the chemiluminescence signals were detected using the WEST-Queen detection system (iNtRON Biotechnology, Seongnam, Korea) and LAS-4000 (Fuji Film Corp., Tokyo, Japan).
# [2] = tested on: cleaved PARP, PARP, cleaved caspase-8, and caspase-8 proteins; assay: Western blotting of apoptosis-related proteins in H1975 cells; assay type: cell-based, human; conditions: H1975, 72 h, concentration-dependent
# Description: as §1
# [3] = target: T1, Recombinant human aurora A protein (Homo sapiens, UniProt O14965); assay: Cell-free aurora kinase assay (ADP-Glo); assay type: biochemical; conditions: myelin basic protein substrate, read-out: Aurora Kinase A Inhibition (IC50)
# T1 construct: purchased Abcam ab271368
# T1 sequence (O14965 1-403): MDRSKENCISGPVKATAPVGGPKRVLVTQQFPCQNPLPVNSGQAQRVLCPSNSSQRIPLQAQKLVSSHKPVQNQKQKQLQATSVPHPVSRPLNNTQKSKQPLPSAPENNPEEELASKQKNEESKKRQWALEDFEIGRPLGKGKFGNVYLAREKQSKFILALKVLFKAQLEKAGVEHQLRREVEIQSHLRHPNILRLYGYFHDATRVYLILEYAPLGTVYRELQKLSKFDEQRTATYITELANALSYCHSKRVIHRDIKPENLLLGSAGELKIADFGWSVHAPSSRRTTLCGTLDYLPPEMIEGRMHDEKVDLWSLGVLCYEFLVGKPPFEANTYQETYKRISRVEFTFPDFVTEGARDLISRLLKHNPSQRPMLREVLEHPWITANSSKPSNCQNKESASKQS
# Description: (§2) Aurora A kinase activity was measured using an ADP-Glo™ Kinase assay kit (Promega, USA, Catalog No. # PAV9101). Recombinant human aurora A protein (Active) (ab271368) and Recombinant human aurora B protein (Active) (ab51435) were purchased from Abcam (United States, Boston, MA). […] The ADP-Glo ^TM reagents and kinase detection buffer and substrates were prepared according to the ADP-Glo™ Kinase Assay kit instructions. Luminescence was measured using a microplate reader.
# [4] = target: T2, Recombinant human aurora B protein (Homo sapiens, UniProt Q96GD4); assay: Cell-free aurora kinase assay (ADP-Glo); assay type: biochemical; conditions: myelin basic protein substrate, read-out: Aurora Kinase B Inhibition (IC50)
# T2 construct: purchased Abcam ab51435
# Description: as §2
# H1975 cells [5] = assay: Colony formation assay; assay type: cell-based, human; conditions: treated 48 h, additional ten days without compound
# Description: Cells (500 cells/well) were seeded and cultured overnight. The compounds were treated for 48 h, the cells were washed with phosphate buffered saline (PBS), and continued incubation. Culture medium was replaced every three days for ten days. Cells were fixed with 4% paraformaldehyde solution and stained with 0.1% crystal violet.
# H1975 cells [6] = assay: Cell cycle analysis (PI staining, flow cytometry); assay type: cell-based, human; conditions: for Sub-G1 cell population: 72 h (Figure 5A)
# Description: Cells were seeded and starved in serum-free medium overnight. After starvation, the cells were treated with compounds for the indicated times. After incubation, cells were harvested, washed with PBS, and fixed with 70% ethanol in PBS overnight at −20 °C. The fixed cells were washed with PBS, resuspended in 100 µg/mL of RNase A for 30 min at room temperature, and stained with 50 µg/mL PI. Fluorescence intensity was analyzed using a FACSCalibur flow cytometer (BD Biosciences, San Jose, CA, USA) and BD CellQuest^TM Pro version 6.0 software (BD Biosciences, San Jose, CA, USA).
# [7] = tested on: cdc25C, cdc2, and p21 proteins; assay: Western blotting of cell cycle regulators in H1975 cells; assay type: cell-based, human; conditions: H1975, 24 h
# Description: as §1
# H1975 cells [8] = assay: Annexin V-FITC/PI double staining (flow cytometry); assay type: cell-based, human
# Description: Cells were treated with samples for 72 h and stained with an Annexin V-FITC apoptosis detection kit (BD Biosciences, San Jose, CA, USA) according to the manufacturer’s instructions. Briefly, cells were collected after 72 h treatment, washed with PBS, resuspended in 1× binding buffer, and stained with Annexin V-FITC and PI in the dark for 15 min. After incubation, the cells were diluted with 1× binding buffer and analyzed using an FACSCalibur flow cytometer (BD Biosciences, San Jose, CA, USA) and BD CellQuest^TM Pro version 6.0 software (BD Biosciences, San Jose, CA, USA).
# T2 sequence (Q96GD4 whole entry): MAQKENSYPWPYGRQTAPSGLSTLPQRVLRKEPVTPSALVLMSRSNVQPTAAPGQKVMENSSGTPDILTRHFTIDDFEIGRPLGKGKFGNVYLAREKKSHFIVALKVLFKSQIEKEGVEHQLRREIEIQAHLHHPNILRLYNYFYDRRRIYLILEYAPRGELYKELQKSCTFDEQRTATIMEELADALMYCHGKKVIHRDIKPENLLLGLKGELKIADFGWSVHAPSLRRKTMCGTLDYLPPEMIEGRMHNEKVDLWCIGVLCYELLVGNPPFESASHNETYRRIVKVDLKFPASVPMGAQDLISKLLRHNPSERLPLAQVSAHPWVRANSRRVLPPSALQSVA
Compound,IC50 (A549 cells),IC50 (H1975 cells [1]),IC50 (PC9 cells),IC50 (PC9-gef cells),IC50 (HCC827-gef cells),IC50 (HCC827 cells),IC50 (H1993 cells),IC50 (H1299 cells),further results
"CCC(=O)Nc1nc2ccc(-c3ccc4ncn(CCc5cc6ccccc6[nH]5)c(=O)c4c3)cc2[nH]1 [FL-4, reference compound]",6.11 ± 1.14 µM,2.81 ± 0.43 µM,15 ± 1.41 µM,6.75 ± 0.71 µM,6.4 ± 0.6 µM,4.14 ± 0.64 µM,4.57 ± 0.29 µM,5.54 ± 0.85 µM,
"CCOC(=O)c1cn2cc(-c3ccc4ncn(Cc5ncccn5)c(=O)c4c3)ccc2n1 [BIQO-19, ethyl 6-(4-oxo-3-(pyrimidin-2-ylmethyl)-3,4-dihydroquinazolin-6-yl)imidazo [1,2-a]pyridine-2-carboxylate]",3.63 ± 0.28 µM,4.76 ± 0.17 µM,16.4 ± 1.44 µM,9.21 ± 0.51 µM,4.43 ± 0.35 µM,4.84 ± 0.17 µM,5.5 ± 1.69 µM,5.3 ± 0.06 µM,"levels of p-aurora kinase A (T288) expression (p-aurora kinase A (T288)): suppressed by BIQO-19 treatment in a concentration-dependent manner; expression levels of PARP and caspase-8 (inactivated forms) [2]: downregulated; expression levels of cleaved PARP and cleaved caspase-8 (activated forms) [2]: upregulated; IC50 [3]: 0.0685 ± 0.00645 µM; IC50 [4]: 0.581 ± 0.0138 µM; colony formation in H1975 cells (H1975 cells [5]): significant inhibition of colony formation; Sub-G1 cell population (H1975 cells [6]; H1975, 1 μM): 2.54%; Sub-G1 cell population (H1975 cells [6]; H1975, 2 μM): 2.60%; G2/M cell population (H1975 cells [6]; H1975, 4 μM, 12 h (Figure 4A)): 35.3%; G2/M cell population (H1975 cells [6]; H1975, 4 μM, 24 h (Figure 4A)): 52.0%; Sub-G1 cell population (H1975 cells [6]; H1975, 4 μM): 15.5%; cdc25C and cdc2 expression [7]: effectively downregulated; p21 expression [7]: upregulated; total cell deaths (early apoptosis + late apoptosis + necrosis) (H1975 cells [8]; H1975, 4 μM, 72 h (Figure 5B,C)): 26.67%; early apoptosis fraction (H1975 cells [8]; H1975, 72 h, single vs combination treatment (Figure 6C)): 17.6%; total cell death (H1975 cells [8]; H1975, 72 h, single vs combination treatment (Figure 6D)): 27.1%"
